# Data: US7723388B2, “Avian appeasing pheromones to decrease stress, anxiety and aggressiveness” (priority 2002, dated 2010)
# Tested on: population of mites (Dermanyssus gallinae, Omithonyssus sylvianm)
# Assay: In vitro sensitivity of the mite population to mite treatments
# Conditions: for Dose to obtain LD50 / Dose to obtain LD100: pd: prescribed dose; for Dose to obtain LD50: 50% of mites killed over 24 hours; for Dose to obtain LD100: 100% of mites killed in 24 hours; for LD 100 at the dose of the product notice: surroundings corresponding to the conditions of breeding
# Experimental: Mites were also tested for during the course of this example. At day 0, the first diffusers of the avian appeasing pheromone were posed and the sampling of mites was effectuated. For the 12 samples that were taken, 5 samples permitted the identification of the species of mites in the breeding; 3 were utilized and placed in a mite culture and recuperated at the end of the internal experiment; and 4 served to test the sensitivity of parasites to the mites used.
# On the 5 samples effectuated, […] samples of parasites were identified. 76% (n=86) were identified as Dermanyssus gallinae (chicken mites) and 24% (n=28) were Omithonyssus sylvianm (Northern Fowl mites).
# Testing the sensitivity of the mites was next conducted. This test was performed in the population of mites with an in vitro system that verifies the sensitivity of the mite treatment utilized (Carbamate).
# The parasites were thus exposed to a variety of concentrations of miticide. The dosage was determined by the value of the notice of dosage recommendation on the product.
# Under experimental conditions 2 lots (T1 and T2) were subjected to the tests. The T1 lot corresponded to a universal test, which is not authorized in breeding since Ivermectine was used. Lot 2 corresponded to a test made with Amitraze.
Compound,Dose to obtain LD50,Dose to obtain LD100,LD 100 at the dose of the product notice
Cc1ccc(/N=C/N(C)/C=N/c2ccc(C)cc2C)c(C)c1 [Amitraze],1 pd,1 pd,obtained with the doses prescribed
Ivermectine,1 pd,1 pd,obtained with the doses prescribed
